Source: US20190167761A1, “PHARMACEUTICAL COMPOSITION FOR PREVENTING OR TREATING STRESS-RELATED DISEASE, INCLUDING DISC1 PROTEIN OR GENE ENCODING THE SAME” (POSTECH ACADEMY-INDUSTRY FOUNDATION, priority 2017, published 2019)
Entries after “also recorded” stand apart in the source; their conditions may differ. Read-outs that look alike come from different tables or passages of the source. Blank lines part the entries; values can stand above or below the molecule they belong to.

Columns and labels:
[1] = system: ER-mitochondria Ca^2+ transfer; assay: Oxidative stress (H2O2 / MSC)-induced mitochondrial Ca2+ levels in cerebral cortical neurons; assay type: cell-based, mouse
Procedure: At this time, to measure mitochondrial Ca^2+ levels at specific time points during incubation of neurons with H2O2, Rhod2/AM, which is a mitochondria-specific chemical Ca^2+ indicator, was used instead of Mito-GCaMP6 capable of causing variations due to different expression levels of Mito-GCaMP6 at multiple time points.

[2] = system: ER-mitochondria Ca^2+ transfer; assay: Corticosterone-induced mitochondrial Ca2+ levels in cerebral cortical neurons; assay type: cell-based, mouse; settings: for corticosterone-induced increase in mitochondrial Ca2+ levels: preincubation with the agent
Procedure: (§1) To verify the hypothesis, changes in ROS and mitochondrial Ca^2+ levels in cerebral cortical neurons were assessed after treatment with corticosterone (CORT), which is a glucocorticoid stress hormone.

[3] = system: cerebral cortical neurons; assay: Corticosterone-induced ROS generation in cerebral cortical neurons; assay type: cell-based, mouse
Procedure: as §1

[4] = system: cerebral cortical neurons; assay: ER Ca2+ storage capacity / IP3 generation after corticosterone; assay type: cell-based, mouse; settings: corticosterone for 1 hour
Procedure: To verify the hypothesis, changes in ROS and mitochondrial Ca^2+ levels in cerebral cortical neurons were assessed after treatment with corticosterone (CORT), which is a glucocorticoid stress hormone. […] To determine whether this glucocorticoid-dependent increase in mitochondrial Ca^2+ levels relies on the induction of oxidative stress, apocynin (APO), which is an antioxidant and a ROS scavenger, was used. […] In contrast, it was confirmed that, when neurons were treated with corticosterone for 1 hour, the capacity of the ER for Ca^2+ storage or IP3 generation was not changed.

IP3R1 [5] = assay: Competitive IP3 binding assay; settings: proteins immunoprecipitated from HEK293FT cells; 3 nM [3H]-IP3, 4° C., 1 hour
Procedure: Transfected HEK293FT cells were lysed in a NP40 buffer, and then the proteins were immunoprecipitated with antibodies. The immunoprecipitated proteins were incubated with 3 nM [^3H]-IP3 at 4° C. for 1 hour and the concentration of cold IP3 was increased in a Ca^2+-free CLM buffer. Meanwhile, brains were isolated from adult WT or DISC1 LI mice and lysed in a NP40 buffer by sonication, and then endogenous IP3R1 and the DISC1 protein were immunoprecipitated with specific antibodies, and then incubated with [^3H]-IP3 in the same manner as described above, and the concentration of cold IP3 was increased. Thereafter, the resulting mixture was filtered with a GF/B filter and washed three times with a CLM buffer, and then the filter was dried, and radioactivity was measured using a scintillation counter.
In IP3R1, the ligand-binding and modulatory domains are critical regions for ligand binding of IP3Rs, and thus the inventors of the present disclosure examined the influence of DISC1 on binding between IP3R1 and its ligand, i.e., IP3. For this, competitive IP3 binding analysis was performed using IP3R1, DISC1, or DISC1^Δ1-201, which was isolated from HEK293FT cells by immunoprecipitation with antibodies according to the methods of Examples 1 to 3.

IP3R1 [6] = assay: Immunoprecipitation analysis of interaction between DISC1 and IP3R1; assay type: binding
Excerpt: IP3R1 is known to be predominantly expressed in the brain and abundant in the MAM. Therefore, the MAM localization of DISC1 was confirmed through Example 2, and to examine the interaction between DISC1 and IP3R1, the inventors of the present disclosure performed immunoprecipitation analysis on the two proteins. […] In addition, as illustrated in the immunoblotting results of FIG. 2C, it was confirmed that the endogenous DISC1 protein and the IP3R1 protein were expressed together in whole lysates and the crude MAM fraction ((MAM+Mito), which was derived from the brains of adult mice.

[7] = system: ER-mitochondria Ca^2+ transfer; assay: IP3-induced mitochondrial Ca2+ imaging (Mito-GCaMP6) in permeabilized cerebral cortical neurons; assay type: cell-based, mouse
Procedure: Neurons (DIV7-8) transfected with Mito-GCaMP6 along with each construct were permeabilized with digitonin and Ca^2+-free ionomycin at 37° C. for 2 minutes in a modified EGTA- and Ca^2+-free buffer, and then was exposed to IP3. To measure the effect of RiBFM on mitochondrial Ca^2+ responses, neurons were transfected with Mito GCaMP6, AKAP1-FKBP12, and FRB-SAC1 together with pFlag-cmv2 or Flag-DISC1 on DIV5-6, and neurons pre-incubated with rapamycin for 5 minutes were exposed to IP3 in the same manner as described above.
By considering the functional association between IP3R1 and DISC1 at the MAM, which was verified in the above example, the inventors of the present disclosure examined whether or not DISC1 was involved in regulating ER-mitochondria Ca^2+ transfer. For this, expression constructs for GCaMP6, which is a genetically encoded Ca^2+ indicator, were modified by combining the target sequences for mitochondria or the ER. Subsequently, it was confirmed that the organelle-specific GCaMP6 constructs were expressed in cerebral cortical neurons. In the case of ER Ca^2+ measurement, the results were verified using ER-GCaMP3, which has a relatively low affinity for Ca^2+. […]

[8] = treatment with corticosterone for 1 hour

Molecule: NCCOB(c1ccccc1)c1ccccc1 [2-APB, 2-aminoethyl diphenylborinate]
mitochondrial Ca2+ levels during incubation with H2O2 [1]: these results were not shown
corticosterone-induced increase in mitochondrial Ca2+ levels [2]: not observed

Molecule: COc1cc(C(C)=O)ccc1O [APO, apocynin]
corticosterone-induced mitochondrial Ca2+ levels ([2]; DISC1 shRNA vs CTL shRNA neurons, corticosterone 1 hour): significantly reduced
difference in mitochondrial Ca2+ accumulation between WT and DISC1 LI neurons ([2]; corticosterone): significantly reduced
corticosterone-induced increase in mitochondrial Ca2+ levels [2]: significantly reduced

Molecule: OO [H2O2, Hydrogen peroxide]
mitochondrial Ca2+ levels during incubation with H2O2 ([1]; Rhod2/AM, specific time points): increased proportional to the incubation time

Molecule: C[C@]12C[C@H](O)[C@H]3[C@@H](CCC4=CC(=O)CC[C@@]43C)[C@@H]1CC[C@@H]2C(=O)CO [corticosterone]
mitochondrial Ca2+ levels [2, 8]: significant increases
ROS levels [3, 8]: significant increases
capacity of the ER for Ca2+ storage or IP3 generation [4]: not changed

binding ability of unlabeled IP3 relative to [3H]IP3 bound to IP3R1 (IP3R1 [5]): decreased
B1: DISC1: disrupted in schizophrenia 1 (DISC1) protein, amino acid sequence of SEQ ID NO: 1 or SEQ ID NO: 2 (protein, UniProt Q9NRI5 1-854, looked up)
Disrupted in schizophrenia 1 …: MPGGGPQGAPAAAGGGGVSHRAGSRDCLPPAACFRRRRLARRPGYMRSSTGPGIGFLSPAVGTLFRFPGGVSGEESHHSESRARQCGLDSRGLLVRSPVSKSAAAPTVTSVRGTSAHFGIQLRGGTRLPDRLSWPCGPGSAGWQQEFAAMDSSETLDASWEAACSDGARRVRAAGSLPSAELSSNSCSPGCGPEVPPTPPGSHSAFTSSFSFIRLSLGSAGERGEAEGCPPSREAESHCQSPQEMGAKAASLDGPHEDPRCLSRPFSLLATRVSADLAQAARNSSRPERDMHSLPDMDPGSSSSLDPSLAGCGGDGSSGSGDAHSWDTLLRKWEPVLRDCLLRNRRQMEVISLRLKLQKLQEDAVENDDYDKAETLQQRLEDLEQEKISLHFQLPSRQPALSSFLGHLAAQVQAALRRGATQQASGDDTHTPLRMEPRLLEPTAQDSLHVSITRRDWLLQEKQQLQKEIEALQARMFVLEAKDQQLRREIEEQEQQLQWQGCDLTPLVGQLSLGQLQEVSKALQDTLASAGQIPFHAEPPETIRSLQERIKSLNLSLKEITTKVCMSEKFCSTLRKKVNDIETQLPALLEAKMHAISGNHFWTAKDLTEEIRSLTSEREGLEGLLSKLLVLSSRNVKKLGSVKEDYNRLRREVEHQETAYETSVKENTMKYMETLKNKLCSCKCPLLGKVWEADLEACRLLIQSLQLQEARGSLSVEDERQMDDLEGAAPPIPPRLHSEDKRKTPLKVLEEWKTHLIPSLHCAGGEQKEESYILSAELGEKCEDIGKKLLYLEDQLHTAIHSHDEDLIQSLRRELQMVKETLQAMILQLQPAKEAGEREAAASCMTAGVHEAQA
IP3R1 domains that DISC1 interacted with (IP3R1 [6]; expression constructs for functional domains of IP3R1): a ligand-binding domain (LBD) and modulatory domains (MD1, MD2, and MD3)
interaction with IP3R1 (GFP-IP3R1) (IP3R1 [6]; immunoprecipitation): strong interaction
IP3-induced increase in mitochondrial Ca2+ levels ([7]; overexpression in permeabilized neurons, compared to control (Vector)): significantly reduced the increase in mitochondrial Ca^2+ levels; also recorded: decreased
degree to which mitochondrial Ca2+ levels were increased ([1]; overexpression, 1 hour after H2O2 incubation, compared to control): significantly reduced
corticosterone-induced ROS generation ([3]; DISC1 knockdown or overexpression in neurons): reduced ROS levels

B2: hDISC1: human DISC1 resistant to shRNA (protein, UniProt Q9NRI5 1-854, looked up)
Disrupted in schizophrenia 1 …: B1 Disrupted in schizophrenia 1 …
modifications: shRNA-resistant silent changes
notes: human DISC1 resistant to shRNA
IP3-dependent increase in mitochondrial Ca2+ ([7]; DISC1 expression inhibited, compared to control neurons (CTL shRNA)): restored similarly to the control
